Results: patent US5491217A, “LHRH antagonists having modified aminoacyl residues at positions 5 and 6” (TAP Holding Inc., priority 1994, dated 1996)
Where a SMILES comes first, the peptide text is derived from it. [ ]: non-standard residue; d: D form. NMePhe(4-NO2) = CN[C@@H](Cc1ccc([N+](=O)[O-])cc1)C(=O)O; dPhe(4-Cl) = N[C@H](Cc1ccc(Cl)cc1)C(=O)O; d2Nal = N[C@H](Cc1ccc2ccccc2c1)C(=O)O; dCit = NC(=O)NCCC[C@@H](N)C(=O)O; d3Pal = N[C@H](Cc1cccnc1)C(=O)O

Molecular target: T1, LHRH (Rattus norvegicus, UniProt P30969)
T1 construct: endogenous in cells
T1 sequence (P30969 1-327): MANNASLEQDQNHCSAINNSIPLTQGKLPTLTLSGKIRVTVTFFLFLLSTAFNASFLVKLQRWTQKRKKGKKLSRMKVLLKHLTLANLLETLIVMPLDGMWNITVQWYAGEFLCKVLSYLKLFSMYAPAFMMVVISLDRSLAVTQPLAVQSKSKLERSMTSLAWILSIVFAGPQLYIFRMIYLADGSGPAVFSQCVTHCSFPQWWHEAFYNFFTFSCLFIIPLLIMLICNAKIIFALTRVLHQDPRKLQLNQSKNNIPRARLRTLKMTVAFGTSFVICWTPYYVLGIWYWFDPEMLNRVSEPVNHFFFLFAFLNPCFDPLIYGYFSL
Test: in vitro test for LHRH antagonist potency (pA2) against the agonist leuprolide
Assay type: cell-based
Settings: negative logarithm of the concentration of antagonist which shifts the response curve produced by the agonist leuprolide to two-fold higher concentration
Experimental: Representative compounds of the present invention were evaluated in in vitro tests for receptor binding (pKI) and for LHRH antagonist potency (pA2). The tests employed the methods detailed in F. Haviv, et al. J. Med. Chem, 32: 2340-2344 (1989). The receptor binding affinities (pKI) are the negative logarithms of the equilibrium dissociation constants, and the values of pA2 are the negative logarithms of the concentration of antagonist which shift the response curve produced by the agonist leuprolide to two-fold higher concentration. (Leuprolide is the LHRH agonist having the structure 5-ox--Pro^1 --His^2 --Trp^3 --Ser^4 -- Tyr^5 --D--Leu^6 --Leu^7 --Arg^8 --Pro^9 --NHEt and is disclosed and claimed in U.S. Pat. No. 4,005,063.) Typically pA2 values of 9.5 or greater are indicative of good LHRH antagonist potency.

pA2	Molecule	Kb [pM]
–	CC(=O)N[C@H](Cc1ccc2ccccc2c1)C(=O)N[C@H](Cc1ccc(Cl)cc1)C(=O)N[C@H](Cc1cccnc1)C(=O)N[C@@H](CO)C(=O)N(C)[C@@H](Cc1ccc([N+](=O)[O-])cc1)C(=O)N[C@H](CCCNC(N)=O)C(=O)N[C@@H](CC(C)C)C(=O)N[C@@H](CCCNC(=N)N)C(=O)N1CCC[C@H]1C(=O)N[C@H](C)C(N)=O [Example 1, NAc--D-2Nal--D-4ClPhe--D-3Pal--Ser--NMe(4-NO2)Phe--D--Cit--Leu--Arg--Pro--DAlaNH2] (Ac-[d2Nal][dPhe(4-Cl)][d3Pal]S[NMePhe(4-NO2)][dCit]LRP[dA]-NH2)	5.5
11.22	NAc--D2Nal--D4ClPhe--D3Pal--Ser--NMe(4-Atza)Phe--DLyS(Nic)--Leu--Lys(Isp)-- ProDAlaNH2 [Example 3]	–
10.68	NAc--D-2Nal--D-4ClPhe--D-3Pal--Ser--NMe--(4-Atza)Phe--D--(4-Atza)Phe--Leu --Lys(Isp)--Pro--D--AlaNH2 [Example 5]	–
10.35	NAc--D-2Nal--D-4ClPhe--D-3Pal--Ser--NMeTyr--D-(4-Atza)Phe--Leu--Lys(Isp)--Pro--D--AlaNH2 [Example 4]	–
